Patent US20150141336A1, “Pancreatic Peptide Compounds and Use” (Novo Nordisk A/S, priority 2012, published 2015)
Numbered stars: 1 amine (or outer) side, 2 acyl side, 3 side chain; on linkers, the order of the positions; unused ones are H or OH. Side chains are listed from the residue outwards. Peptide text beside a SMILES is read from it. * marks the point of attachment. C18 diacid = O=C(O)CCCCCCCCCCCCCCCCC(=O)*; γGlu = O=C(O)[C@H](CCC(=O)[*:2])N[*:1]; AEEA = NCCOCCOCC(=O)O

Test: Assay (II) PK i.v. minipig, in vivo half-life
Set-up: species or system Göttingen mini-pigs
Settings: male, Göttingen, minipig, iv
Procedure: An assay useful for measuring the pharmacokinetic (PK) profile of the PP peptide is the following mini-pig PK assay.
Five male Göttingen mini-pigs weighing approximately 18 to 22 kg from Ellegaard Göttingen Minipigs NS, Denmark are included in the study. The mini-pigs have two central venous catheters inserted which are used for intra venous (i.v.) dosing and blood sampling. The test compound is dissolved in 50 mM K2HPO4, 0.05% tween 80, pH=8.0 to a concentration of 180 nmol/ml. For comparison a control compound, such as human PP(1-36), may be administered. The pigs are dosed with 6 nmol test compound/kg body weight. Blood samples are taken at the following time points: pre-dose, 30 minutes, 1, 2, 4, 8, 24, 48, 72, 96, 120, 168 and 240 hours post dosing. The blood samples were collected into test tubes containing EDTA buffer for stabilization and kept on ice for max. 20 minutes before centrifugation. The centrifugation procedure to separate plasma may be: 4° C., approx. 2500 g for 10 minutes. Plasma is collected and immediately transferred to Micronic tubes stored at −20° C. until assayed.
The test compounds were assayed in plasma by Turbulent Flow Chromatography coupled to Liquid Chromatography with subsequent Tandem Mass Spectrometric Detection (TFC/LC/MS/MS). Positive mode ionization and Multiple Reaction Monitoring (MRM) of a multiple protonated species fragmented to a singly charged ion was employed for selectivity. The selectivity of the method allows multiple compounds to be quantified in one sample.
The concentrations of the test compound in samples of unknown concentration were calculated using the peak area as a function of amount. Calibration graphs based on plasma samples spiked with the analyte were constructed by regression analysis. Typical dynamic range for standard assay was 1-2000 nmol/I. The method performance was assured by co-assaying quality control (QC) samples in duplicate at three concentration levels.
Stock and working solutions of analytes were prepared in plasma and incubated by 37° C. for 1 hour.
Sample Preparation: 40.0 μl EDTA-plasma was added 160 μl 50% methanol, 1% formic acid, then vortexed and centrifuged at 16457 g at 4° C. for 20 minutes. The supernatant was transferred to a 96 well plate, plates incubated with 0.4% BSA, 37° C. for ½ hour. Injection volume was 25 μl.
The analysis was carried out on a Sciex API 3000 mass spectrometer (MDS/Sciex, Concord, ON, Canada) using a TurbolonSpray interface. The TFC/LC system consisted of two Flux Rheos 2000 quaternary pumps, a Cohesive VIM module (Cohesive Technologies, Franklin, Mass., USA) and a CTC LC/PAL auto sampler (CTC Analytics, Zingen, Switzerland). The centrifuge employed was a HettichMikro 22R (A. Hettich, Tuttlingen, Germany). For sample clean up a TurboFlow C8 column (0.5×50 mm) (Cohesive Technologies/Thermofisher) was used and the LC separation was done on a Proteo 4 μm column (2.0×50 mm) (Phenomenex, Torrance, Calif., USA). Eluents were isocratic and gradient combinations of methanol, acetonitril, Milli-Q water and formic acid.
Non-compartmental analysis (NCA): Plasma concentration-time profiles are analyzed by non-compartmental pharmacokinetics analysis (NCA) using WinNonlin Professional 5.0 (Pharsight Inc., Mountain View, Calif., USA). NCA is performed using the individual plasma concentration-time profiles from each animal.

Half-life minipig, Assay (II)	SMILES
36 h	CC[C@H](C)[C@H](NC(=O)[C@H](Cc1ccc(O)cc1)NC(=O)[C@H](CCCNC(=N)N)NC(=O)[C@H](CCCNC(=N)N)NC(=O)[C@H](CC(C)C)NC(=O)[C@H](CC(=O)O)NC(=O)[C@H](C)NC(=O)[C@H](C)NC(=O)[C@H](Cc1ccc(O)cc1)NC(=O)[C@H](CCC(N)=O)NC(=O)[C@H](C)NC(=O)[C@H](CCSC)NC(=O)[C@H](CCC(N)=O)NC(=O)[C@H](CCC(=O)O)NC(=O)[C@@H]1CCCN1C(=O)[C@@H](NC(=O)[C@H](C)NC(=O)[C@H](CC(N)=O)NC(=O)[C@H](CC(=O)O)NC(=O)CNC(=O)[C@@H]1CCCN1C(=O)[C@H](Cc1ccc(O)cc1)NC(=O)[C@@H](NC(=O)[C@@H]1CCCN1C(=O)[C@H](CCC(=O)O)NC(=O)[C@H](CC(C)C)NC(=O)[C@@H]1CCCN1C(=O)COCCOCCNC(=O)COCCOCCNC(=O)CC[C@H](NC(=O)CCCCCCCCCCCCCCCCC(=O)O)C(=O)O)C(C)C)[C@@H](C)O)C(=O)N[C@@H](CC(N)=O)C(=O)N[C@@H](CCSC)C(=O)N[C@@H](CC(C)C)C(=O)N[C@H](C(=O)N[C@@H](CCCNC(=N)N)C(=O)N1CCC[C@H]1C(=O)N[C@@H](CCCNC(=N)N)C(=O)N[C@@H](Cc1ccc(O)cc1)C(N)=O)[C@@H](C)O [Compound AF]

Same assay, conditions: male, Göttingen, minipig, iv, Half-life minipig, Assay (II)

half-life	SMILES
45 h	CC[C@H](C)[C@H](NC(=O)[C@H](Cc1ccc(O)cc1)NC(=O)[C@H](CCCNC(=N)N)NC(=O)[C@H](CCCNC(=N)N)NC(=O)[C@H](CC(C)C)NC(=O)[C@H](CC(=O)O)NC(=O)[C@H](C)NC(=O)[C@H](C)NC(=O)[C@H](Cc1ccc(O)cc1)NC(=O)[C@H](CCC(N)=O)NC(=O)[C@H](C)NC(=O)[C@H](CCSC)NC(=O)[C@H](CCC(N)=O)NC(=O)[C@H](CCC(=O)O)NC(=O)[C@@H]1CCCN1C(=O)[C@@H](NC(=O)[C@H](C)NC(=O)[C@H](CC(N)=O)NC(=O)[C@H](CC(=O)O)NC(=O)CNC(=O)[C@@H]1CCCN1C(=O)[C@H](Cc1ccc(O)cc1)NC(=O)[C@@H](NC(=O)[C@@H]1CCCN1C(=O)[C@H](CCC(=O)O)NC(=O)[C@H](CCCCNC(=O)COCCOCCNC(=O)COCCOCCNC(=O)CC[C@H](NC(=O)CCCCCCCCCCCCCCCCC(=O)O)C(=O)O)NC(=O)[C@@H]1CCCN1)C(C)C)[C@@H](C)O)C(=O)N[C@@H](CC(N)=O)C(=O)N[C@@H](CCSC)C(=O)N[C@@H](CC(C)C)C(=O)N[C@H](C(=O)N[C@@H](CCCNC(=N)N)C(=O)N1CCC[C@H]1C(=O)N[C@@H](CCCNC(=N)N)C(=O)N[C@@H](Cc1ccc(O)cc1)C(N)=O)[C@@H](C)O [Compound AE]
80 h	CC[C@H](C)[C@H](NC(=O)[C@H](Cc1ccc(O)cc1)NC(=O)[C@H](CCCNC(=N)N)NC(=O)[C@H](CCCNC(=N)N)NC(=O)[C@H](CC(C)C)NC(=O)[C@H](CC(=O)O)NC(=O)[C@H](C)NC(=O)[C@H](C)NC(=O)[C@H](Cc1ccc(O)cc1)NC(=O)[C@H](CCC(N)=O)NC(=O)[C@H](C)NC(=O)[C@H](CCSC)NC(=O)[C@H](CCC(N)=O)NC(=O)[C@H](CCC(=O)O)NC(=O)[C@@H]1CCCN1C(=O)[C@@H](NC(=O)[C@H](C)NC(=O)[C@H](CC(N)=O)NC(=O)[C@H](CC(=O)O)NC(=O)CNC(=O)[C@@H]1CCCN1C(=O)[C@H](Cc1ccc(O)cc1)NC(=O)[C@@H](NC(=O)[C@@H]1CCCN1C(=O)[C@H](CCC(=O)O)NC(=O)[C@@H](N)CC(C)C)C(C)C)[C@@H](C)O)C(=O)N[C@@H](CC(N)=O)C(=O)N[C@@H](CCSC)C(=O)N[C@@H](CC(C)C)C(=O)N[C@@H](CCCCNC(=O)COCCOCCNC(=O)COCCOCCNC(=O)CC[C@H](NC(=O)CCCCCCCCCCCCCCCCC(=O)O)C(=O)O)C(=O)N[C@@H](CCCNC(=N)N)C(=O)N1CCC[C@H]1C(=O)N[C@@H](CCCNC(=N)N)C(=O)N[C@@H](Cc1ccc(O)cc1)C(N)=O [Compound AJ] (H-LEPVYPGDNATPEQMAQYAADLRRYINMLK([AEEA-AEEA-γGlu-C18 diacid])RPRY-NH2; N-terminus and C-terminus assumed)

The next lines start with the compound.

SMILES	half-life
CC[C@H](C)[C@H](NC(=O)[C@H](Cc1ccc(O)cc1)NC(=O)[C@H](CCCNC(=N)N)NC(=O)[C@H](CCCNC(=N)N)NC(=O)[C@H](CC(C)C)NC(=O)[C@H](CC(=O)O)NC(=O)[C@H](C)NC(=O)[C@H](C)NC(=O)[C@H](Cc1ccc(O)cc1)NC(=O)[C@H](CCC(N)=O)NC(=O)[C@H](C)NC(=O)[C@H](CCSC)NC(=O)[C@H](CCC(N)=O)NC(=O)[C@H](CCC(=O)O)NC(=O)[C@@H]1CCCN1C(=O)[C@@H](NC(=O)[C@H](C)NC(=O)[C@H](CC(N)=O)NC(=O)[C@H](CC(=O)O)NC(=O)CNC(=O)[C@@H]1CCCN1C(=O)[C@H](Cc1ccc(O)cc1)NC(=O)[C@@H](NC(=O)[C@@H]1CCCN1C(=O)[C@H](CCC(=O)O)NC(=O)[C@H](CC(C)C)NC(=O)[C@@H]1CCCN1C(=O)COCCOCCNC(=O)COCCOCCNC(=O)CC[C@H](NC(=O)CCCCCCCCCCCCCCCCC(=O)O)C(=O)O)C(C)C)[C@@H](C)O)C(=O)N[C@@H](CC(N)=O)C(=O)N[C@@H](CCSC)C(=O)N[C@@H](CC(C)C)C(=O)N[C@H](C(=O)N[C@@H](CCCNC(=N)N)C(=O)N1CCC[C@H]1C(=O)N[C@@H](CCCNC(=N)N)C(=O)N[C@@H](Cc1ccc(O)cc1)C(N)=O)[C@@H](C)O [Compound AF]	33 h
CC[C@H](C)[C@H](NC(=O)[C@H](Cc1ccc(O)cc1)NC(=O)[C@H](CCCNC(=N)N)NC(=O)[C@H](CCCNC(=N)N)NC(=O)[C@H](CC(C)C)NC(=O)[C@H](CC(=O)O)NC(=O)[C@H](C)NC(=O)[C@H](C)NC(=O)[C@H](Cc1ccc(O)cc1)NC(=O)[C@H](CCC(N)=O)NC(=O)[C@H](C)NC(=O)[C@H](CCSC)NC(=O)[C@H](CCC(N)=O)NC(=O)[C@H](CCC(=O)O)NC(=O)[C@@H]1CCCN1C(=O)[C@@H](NC(=O)[C@H](C)NC(=O)[C@H](CC(N)=O)NC(=O)[C@H](CC(=O)O)NC(=O)CNC(=O)[C@@H]1CCCN1C(=O)[C@H](Cc1ccc(O)cc1)NC(=O)[C@@H](NC(=O)[C@@H]1CCCN1C(=O)[C@H](CCC(=O)O)NC(=O)[C@@H](N)CC(C)C)C(C)C)[C@@H](C)O)C(=O)N[C@@H](CC(N)=O)C(=O)N[C@@H](CCSC)C(=O)N[C@@H](CCCCNC(=O)COCCOCCNC(=O)COCCOCCNC(=O)CC[C@H](NC(=O)CCCCCCCCCCCCCCCCC(=O)O)C(=O)O)C(=O)N[C@H](C(=O)N[C@@H](CCCNC(=N)N)C(=O)N1CCC[C@H]1C(=O)N[C@@H](CCCNC(=N)N)C(=O)N[C@@H](Cc1ccc(O)cc1)C(N)=O)[C@@H](C)O [Compound AK] (H-LEPVYPGDNATPEQMAQYAADLRRYINMK([AEEA-AEEA-γGlu-C18 diacid])TRPRY-NH2; N-terminus and C-terminus assumed)	80 h
CC[C@H](C)[C@H](NC(=O)[C@H](Cc1ccc(O)cc1)NC(=O)[C@H](CCCNC(=N)N)NC(=O)[C@H](CCCNC(=N)N)NC(=O)[C@H](CC(C)C)NC(=O)[C@H](CC(=O)O)NC(=O)[C@H](C)NC(=O)[C@H](C)NC(=O)[C@H](Cc1ccc(O)cc1)NC(=O)[C@H](CCC(N)=O)NC(=O)[C@H](C)NC(=O)[C@H](CCSC)NC(=O)[C@H](CCC(N)=O)NC(=O)[C@H](CCC(=O)O)NC(=O)[C@@H]1CCCN1C(=O)[C@@H](NC(=O)[C@H](C)NC(=O)[C@H](CC(N)=O)NC(=O)[C@H](CC(=O)O)NC(=O)CNC(=O)[C@@H]1CCCN1C(=O)[C@H](Cc1ccc(O)cc1)NC(=O)[C@@H](NC(=O)[C@@H]1CCCN1C(=O)[C@H](CCC(=O)O)NC(=O)[C@@H](N)CC(C)C)C(C)C)[C@@H](C)O)C(=O)N[C@@H](CC(N)=O)C(=O)N[C@@H](CCCCNC(=O)COCCOCCNC(=O)COCCOCCNC(=O)CC[C@H](NC(=O)CCCCCCCCCCCCCCCCC(=O)O)C(=O)O)C(=O)N[C@@H](CC(C)C)C(=O)N[C@H](C(=O)N[C@@H](CCCNC(=N)N)C(=O)N1CCC[C@H]1C(=O)N[C@@H](CCCNC(=N)N)C(=O)N[C@@H](Cc1ccc(O)cc1)C(N)=O)[C@@H](C)O [Compound AL] (H-LEPVYPGDNATPEQMAQYAADLRRYINK([AEEA-AEEA-γGlu-C18 diacid])LTRPRY-NH2; N-terminus and C-terminus assumed)	59 h
CC[C@H](C)[C@H](NC(=O)[C@H](Cc1ccc(O)cc1)NC(=O)[C@H](CCCNC(=N)N)NC(=O)[C@H](CCCNC(=N)N)NC(=O)[C@H](CC(C)C)NC(=O)[C@H](CC(=O)O)NC(=O)[C@H](C)NC(=O)[C@H](C)NC(=O)[C@H](Cc1ccc(O)cc1)NC(=O)[C@H](CCC(N)=O)NC(=O)[C@H](C)NC(=O)[C@H](CCSC)NC(=O)[C@H](CCC(N)=O)NC(=O)[C@H](CCC(=O)O)NC(=O)[C@@H]1CCCN1C(=O)[C@@H](NC(=O)[C@H](C)NC(=O)[C@H](CC(N)=O)NC(=O)[C@H](CC(=O)O)NC(=O)CNC(=O)[C@@H]1CCCN1C(=O)[C@H](Cc1ccc(O)cc1)NC(=O)[C@@H](NC(=O)[C@@H]1CCCN1C(=O)[C@H](CCC(=O)O)NC(=O)[C@@H](N)CC(C)C)C(C)C)[C@@H](C)O)C(=O)N[C@@H](CCCCNC(=O)COCCOCCNC(=O)COCCOCCNC(=O)CC[C@H](NC(=O)CCCCCCCCCCCCCCCCC(=O)O)C(=O)O)C(=O)N[C@@H](CCSC)C(=O)N[C@@H](CC(C)C)C(=O)N[C@H](C(=O)N[C@@H](CCCNC(=N)N)C(=O)N1CCC[C@H]1C(=O)N[C@@H](CCCNC(=N)N)C(=O)N[C@@H](Cc1ccc(O)cc1)C(N)=O)[C@@H](C)O [Compound AM] (H-LEPVYPGDNATPEQMAQYAADLRRYIK([AEEA-AEEA-γGlu-C18 diacid])MLTRPRY-NH2; N-terminus and C-terminus assumed)	70 h
